In patent publication US5219884A, “Immunosuppressant” (Taito Co., Ltd., priority 1990, dated 1993):
Read-outs that look alike come from different tables or passages of the source.

Legend:
[1] = system: mouse allogenic mixed lymphocyte reaction (BALB/c responder, C57BL/6 stimulator spleen cells); assay: mouse allogenic mixed lymphocyte reaction (MLR), blastogenesis by 3H-thymidine uptake; assay type: cell-based
Description: The immunosuppressive activity of the compounds (I) and their lactones was assayed by using mouse allogenic mixed lymphocyte reaction (hereinafter sometimes abbreviated as MLR). Mouse allogenic MLR was carried out by mixed culture of the BALB/c mouse (H-2^d) spleen cells as the responder cells and the mitomycin C-treated C57BL/6 (H-2^b) spleen cells as the stimulator cells in equal amounts.
The responder cells were prepared as follows: The spleen was resected from 5- to 6-week-old male BALB/c mice, and single cell suspension of spleen cells was prepared by using the RPMI1640 culture medium (containing 60 μg/ml of kanamycin sulfate, 2 mM of L-glutamine, 10 mM of N-2-hydroxyethylpiperazine-N'-2-ethanesulfonate (HEPES) and 0.1% sodium hydrogencarbonate) to which heat-inactivated fetal calf serum (hereinaftersometimes abbreviated as FCS) had been added to 5%. After hemolytic treatment, the cell suspension was adjusted to a concentration of 10^7 cells/ml by using the RPMI1640 culture medium supplemented with 10^-4 M 2-mercaptoethanol and 20% FCS, and was used as the responder cell suspension.
The stimulator cells were prepared as follows:
The spleen was resected from 5- to 6-week-old male C57BL/6 mice, and single cell suspension of spleen cells was prepared by using the RPMI1640 culture medium. After hemolytic treatment, the cells were treated with 40 μg/ml of mitomycin C at 37° C. for 60 minutes. After washing three times, the concentration of the cell suspension was adjusted to 10^7 cells/ ml by using the RPMI1640 culture medium supplemented with 10^-4 M 2-mercaptoethanol and 20% FCS, and was used as the stimulator cell suspension.
Fifty μl of the responder cell suspension, 50μl of the stimulator cell suspension prepared by the above method, and 100 μl of the test substance were placed in 96-well microculture plates, and were cultured at 37° C. in an atmosphere of 5% carbon dioxide for 4 days.
The blastogenesis of lymphocytes was assayed by a method of ^3 H-thymidine uptake as an index. That is, after termination of the culture, 0.5 μCi/well of ^3 H-thymidine was added and cultured for 4 hours. Cells were harvested by a cell-harvester, and the radioactivity incorporated into the cells was determined by a liquid scintillation counter to obtain the index of blastogenesis of lymphocytes in the mouse allogenic MLR. The suppression of the mouse allogenic MLR was evaluated by calculating the percent suppression by the following formula. [formula]
The test substance was dissolved in methanol or suspended in a mixture of methanol and acetic acid, and then diluted with the RPMI1640 culture medium.

[2] = system: IL2-dependent mouse cell line CTLL-2; assay: suppression of IL-2 induced 3H-thymidine incorporation of CTLL-2; assay type: cell-based; conditions: 72 hrs, second run (control 30168 cpm)
Description: IL2-dependent mouse cell line CTLL-2 cells were suspended in the RPMI1640 culture medium supplemented with 30% FCS to a concentration of 2×10^5 cells/ml. The suspension (50 μl) and 50 μl of concanavalin A-stimulated rat spleen cell culture supernatants containing IL2 were added to each well of 96-well microculture plates in which 100 μl of the test substance had been placed. After culturing at 37° C. in an atmosphere of 5% carbon dioxide for 20, 44, or 68 hours, 0.5 μCi/well of ^3 H-thymidine was added, and cultured for 4 hours under the same conditions. After termination of the culture, the cells were harvested by a cell harvester, and the radioactivity incorporated into the cells was measured by a liquid scintillation counter.

[3] = cytotoxicity to mouse L929 cells; assay type: cell-based; conditions: mouse, l929 cells, read-out: Suppression
Description: (§1) Cytotoxicity to mouse L929 cells was assayed as follows:
(§2) L929 cells were suspended to the concentration of 1.5×10^5 cells/ml in the F12 culture medium supplemented with 10% FCS. One hundred μl of the suspension was added to each well of 96-well microculture plates, and cultured at 37° C. in an atmosphere of 5% carbon dioxide for 24 hours, to which 100 μl of the test solution was added and cultured for further 48 hours. After the culture, 100 μl of the supernatant was removed and the absorbancy at 550 nm was measured in the same way as the colormetry using MTT in Experimental Example 1. The percent suppression was calculated by the following formula used as the index of cytotoxicity. [formula]

mouse L929 cells = assay: cytotoxicity to mouse L929 cells; assay type: cell-based; conditions: 550 nm
Description: as §1, §2

in vitro = assay type: cell-based, human; conditions: human, read-out: Suppression
Description: (§3) Cytotoxicity to human tumor cell lines was examined as follows:
(§4) Cells of human cell lines, K562, MOLT4, U937, HL60, KATOIII, KB, PC-6, PC-14 and CCRF-CEM were separately suspended to the concentration of 2×10^5 cells/ml in the RPMI1640 culture medium supplemented with 20% FCS. Fifty μl of this suspension was added to each well of 96-well microculture plates to which 50 μl of the test solution had been added. After culturing at 37° C. in an atmosphere of 5% carbon dioxide for 72 hours, the absorbancy at 550 nm was measured in the same way as the colorimetry using MTT in Experimental Example 1, and the percent suppression was calculated in the same manner as in Experimental Example 14, which was used as the index of cytotoxicity.

K562 = assay: in vitro; assay type: cell-based, human
Description: as §3, §4

[4] = cytotoxicity to tumor cell line MOLT4; assay type: cell-based, human; conditions: human, molt4 cells, read-out: Suppression
Description: as §3, §4

MOLT4 = assay: cytotoxicity to tumor cell line MOLT4; assay type: cell-based, human
Description: as §3, §4

CCCCCCC(O)CCCCCC/C=C/CC(O)C(O)C(N)(CO)C(=O)O (stereo not shown) [Example 6]
3H-thymidine uptake ([1]; 0.001 μg/ml): 16237 cpm
3H-thymidine uptake ([1]; 0.01 μg/ml): 9276 cpm
3H-thymidine uptake ([1]; 0.1 μg/ml): 3017 cpm
inhibition at 0.001 µg/mL ([1]; Mus musculus, Lymphocyte, 0.001 μg/ml, read-out: Suppression): 52.3%
inhibition at 0.01 µg/mL ([1]; Mus musculus, Lymphocyte, 0.01 μg/ml, read-out: Suppression): 85.4%
inhibition at 0.1 µg/mL ([1]; Mus musculus, Lymphocyte, 0.1 μg/ml, read-out: Suppression): 100%
3H-thymidine uptake ([2]; 0.1 μg/ml): 7237 cpm
3H-thymidine uptake ([2]; 1 μg/ml): 1346 cpm
inhibition at 0.1 µg/mL ([2]; Mus musculus, CTLL-2, 0.1 μg/ml, read-out: Suppression): 76.2%
inhibition at 1 µg/mL ([2]; Mus musculus, CTLL-2, 1 μg/ml): 95.7%
cytotoxicity at 48 h ([3]; 0.1 μg/ml): 0%
cytotoxicity at 48 h ([3]; 1 μg/ml): 0%
cytotoxicity at 48 h ([3]; 10 μg/ml): 0%
Absorbancy (mouse L929 cells; 0.1 μg/ml): 0.732
Absorbancy (mouse L929 cells; 1 μg/ml): 0.714
Absorbancy (mouse L929 cells; 10 μg/ml): 0.733
cytotoxicity at 72 h (in vitro; ccrf-cem cells, 0.1 μg/ml): 8%
cytotoxicity at 72 h (in vitro; ccrf-cem cells, 1.0 μg/ml): 9.1%
cytotoxicity at 72 h (in vitro; ccrf-cem cells, 10.0 μg/ml): 5.6%
cytotoxicity at 72 h (in vitro; hl60 cells, 0.1 μg/ml): 16%
cytotoxicity at 72 h (in vitro; hl60 cells, 1.0 μg/ml): 21%
cytotoxicity at 72 h (in vitro; hl60 cells, 10.0 μg/ml): 17%
cytotoxicity at 72 h (in vitro; k562 cells, 0.1 μg/ml): 1.6%
cytotoxicity at 72 h (in vitro; k562 cells, 1.0 μg/ml): 4.5%
cytotoxicity at 72 h (in vitro; k562 cells, 10.0 μg/ml): 3%
cytotoxicity at 72 h (in vitro; kb cells, 0.1 μg/ml): 0%
cytotoxicity at 72 h (in vitro; kb cells, 1.0 μg/ml): 0.3%
cytotoxicity at 72 h (in vitro; kb cells, 10.0 μg/ml): 3.2%
cytotoxicity at 72 h (in vitro; pc-14 cells, 0.1 μg/ml): 21.5%
cytotoxicity at 72 h (in vitro; pc-14 cells, 1.0 μg/ml): 14.6%
cytotoxicity at 72 h (in vitro; pc-14 cells, 10.0 μg/ml): 25.9%
cytotoxicity at 72 h (in vitro; u937 cells, 0.1 μg/ml): 14%
cytotoxicity at 72 h (in vitro; u937 cells, 1.0 μg/ml): 9.9%
cytotoxicity at 72 h (in vitro; u937 cells, 10.0 μg/ml): 10.1%
Absorbancy (K562; 0.1 μg/ml): 0.823
Absorbancy (K562; 1.0 μg/ml): 0.798
Absorbancy (K562; 10.0 μg/ml): 0.811
cytotoxicity at 72 h ([4]; 0.1 μg/ml): 0.8%
cytotoxicity at 72 h ([4]; 1.0 μg/ml): 3.4%
cytotoxicity at 72 h ([4]; 10.0 μg/ml): 8.5%
Absorbancy (MOLT4; 0.1 μg/ml): 0.615
Absorbancy (MOLT4; 1.0 μg/ml): 0.599
Absorbancy (MOLT4; 10.0 μg/ml): 0.567
